Key:
Format in all cases: cell-based
[1] = molecular target: KV10.1 (Homo sapiens, UniProt O95259); assay: Selectivity, HiClamp Xenopus laevis heterologous expression system, KV10.1; conditions: at a concentration of the compound's IC50 value for KV1.3
Description: (§1) Ion channels (Kv1.x, Kv2.1, Kv4.2, Kv10.1) were expressed in Xenopus laevis oocytes by linearization of the plasmids and subsequent in vitro transcription using a commercial T7 or SP6 mMESSAGE mMACHINE transcription kit (Ambion, Carlsbad, California, USA). Defolliculated Xenopus oocytes were then injected with 20–50 nL of the cRNA at a concentration of 1 ng/nL using a micro-injector (Drummond Scientific1, Broomall, PA, USA). The oocytes were incubated in a solution containing (in mM): NaCl, 96; KCl, 2; CaCl2, 1.8; MgCl2, 2 and HEPES, 5 (pH 7.5), supplemented with 50 mg/L gentamycin sulfate and 90 mg/L theophylline. […]
(§2) Two-electrode voltage-clamp recordings were performed at room temperature (18–22 °C) using a Geneclamp 500 amplifier (Molecular Devices, San Jose, CA, USA) and pClamp data acquisition (Axon Instruments, Union City, CA, USA) and using an integrated digital TEVC amplifier controlled by HiClamp, an automated Voltage-Clamp Screening System (Multi Channel Systems MCS GmbH, Reutlingen, Germany). Whole-cell currents from oocytes were recorded 1–4 days after injection. […]
(§3) For the electrophysiological analysis of the compounds, a number of protocols were applied from a holding potential of −90 mV. […] The concentration dependency of all compounds was assessed by measuring the current inhibition in the presence of increasing compound concentrations. […]

[2] = molecular target: T1, KV2.1 (Homo sapiens, UniProt Q14721); assay: Selectivity, HiClamp Xenopus laevis heterologous expression system, KV2.1
T1 sequence (Q14721 1-858): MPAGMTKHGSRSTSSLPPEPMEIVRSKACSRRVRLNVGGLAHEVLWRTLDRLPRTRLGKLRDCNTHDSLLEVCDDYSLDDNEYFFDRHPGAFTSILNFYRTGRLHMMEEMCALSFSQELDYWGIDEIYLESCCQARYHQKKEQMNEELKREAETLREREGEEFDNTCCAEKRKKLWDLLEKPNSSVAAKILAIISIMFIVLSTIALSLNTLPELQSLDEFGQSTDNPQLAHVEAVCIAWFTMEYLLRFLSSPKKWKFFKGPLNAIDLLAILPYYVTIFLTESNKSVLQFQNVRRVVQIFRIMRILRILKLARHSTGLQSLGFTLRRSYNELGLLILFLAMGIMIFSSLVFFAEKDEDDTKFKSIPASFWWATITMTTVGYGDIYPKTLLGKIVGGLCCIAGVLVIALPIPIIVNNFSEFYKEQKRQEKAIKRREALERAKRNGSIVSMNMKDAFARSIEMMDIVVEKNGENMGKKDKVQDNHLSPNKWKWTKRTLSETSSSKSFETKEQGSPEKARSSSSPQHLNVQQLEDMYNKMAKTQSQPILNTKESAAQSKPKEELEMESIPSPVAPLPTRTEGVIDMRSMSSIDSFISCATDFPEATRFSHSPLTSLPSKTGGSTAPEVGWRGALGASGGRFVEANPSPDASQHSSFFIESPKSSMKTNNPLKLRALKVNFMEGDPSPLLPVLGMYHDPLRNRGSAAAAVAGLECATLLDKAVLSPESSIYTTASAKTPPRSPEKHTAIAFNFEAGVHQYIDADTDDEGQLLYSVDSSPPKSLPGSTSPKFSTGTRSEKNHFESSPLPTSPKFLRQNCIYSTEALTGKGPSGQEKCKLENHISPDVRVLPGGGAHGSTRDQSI
Description: (§4) Ion channels (Kv1.x, Kv2.1, Kv4.2, Kv10.1) were expressed in Xenopus laevis oocytes by linearization of the plasmids and subsequent in vitro transcription using a commercial T7 or SP6 mMESSAGE mMACHINE transcription kit (Ambion, Carlsbad, California, USA). Defolliculated Xenopus oocytes were then injected with 20–50 nL of the cRNA at a concentration of 1 ng/nL using a micro-injector (Drummond Scientific1, Broomall, PA, USA). The oocytes were incubated in a solution containing (in mM): NaCl, 96; KCl, 2; CaCl2, 1.8; MgCl2, 2 and HEPES, 5 (pH 7.5), supplemented with 50 mg/L gentamycin sulfate and 90 mg/L theophylline. After ex vivo translation, the ion channels were correctly inserted in the cell membrane of the oocytes.
as §2, with “injection. The bath solution composition was ND96 (in mM): NaCl, 96; KCl, 2; CaCl2, 1.8; MgCl2, 2 and HEPES, 5 (pH 7.5). Voltage and current electrodes were filled with a 3 M solution of KCl in H2O.” for “injection.”
as §3
(§5) All electrophysiological data (Figure S1) are presented as means ± S.E.M of n ≥ three independent experiments unless otherwise indicated. All data were analyzed using pClamp Clampfit 10.4 (Molecular Devices, Downingtown, PA, USA), OriginPro 9 (Originlab, Northampton, MA, USA), GraphPad Prism 8 software (GraphPad Software, Inc., San Diego, CA, USA) and DataMining (Multi Channel Systems MCS GmbH, Reutlingen, Germany). […]

[3] = molecular target: KV1.4 (Homo sapiens, UniProt P22459); assay: Selectivity, HiClamp Xenopus laevis heterologous expression system, KV1.4
Description: as §4
as §2, with “injection. The bath solution composition was ND96 (in mM): NaCl, 96; KCl, 2; CaCl2, 1.8; MgCl2, 2 and HEPES, 5 (pH 7.5). Voltage and current electrodes were filled with a 3 M solution of KCl in H2O.” for “injection.”
as §3, §5

[4] = molecular target: KV4.2 (Homo sapiens, UniProt Q9NZV8); assay: Selectivity, HiClamp Xenopus laevis heterologous expression system, KV4.2; conditions: oocytes, NA = no significant inhibition, no IC50 determined
Description: as §1, §2, §3

[5] = at a concentration of the compound's IC50 value for KV1.3
[6] = HiClamp, oocytes, NA = no significant inhibition, no IC50 determined

Sequence of KV1.4 (P22459 whole entry): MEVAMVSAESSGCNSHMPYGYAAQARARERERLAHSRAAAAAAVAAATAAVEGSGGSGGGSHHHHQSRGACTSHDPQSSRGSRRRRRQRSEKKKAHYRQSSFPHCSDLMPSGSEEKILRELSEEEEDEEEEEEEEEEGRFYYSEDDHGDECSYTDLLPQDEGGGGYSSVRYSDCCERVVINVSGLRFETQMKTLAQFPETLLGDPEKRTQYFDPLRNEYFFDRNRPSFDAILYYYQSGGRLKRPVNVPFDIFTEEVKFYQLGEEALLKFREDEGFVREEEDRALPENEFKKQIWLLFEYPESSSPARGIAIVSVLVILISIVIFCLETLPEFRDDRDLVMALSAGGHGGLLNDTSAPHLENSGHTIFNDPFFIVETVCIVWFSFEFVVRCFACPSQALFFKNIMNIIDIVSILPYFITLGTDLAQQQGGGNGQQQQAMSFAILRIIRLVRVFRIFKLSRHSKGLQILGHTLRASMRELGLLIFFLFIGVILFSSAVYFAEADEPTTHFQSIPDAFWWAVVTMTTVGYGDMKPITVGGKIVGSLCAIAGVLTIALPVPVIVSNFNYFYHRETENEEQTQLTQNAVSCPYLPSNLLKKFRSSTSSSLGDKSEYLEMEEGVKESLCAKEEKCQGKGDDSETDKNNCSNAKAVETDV
Sequence of KV10.1 (O95259 whole entry): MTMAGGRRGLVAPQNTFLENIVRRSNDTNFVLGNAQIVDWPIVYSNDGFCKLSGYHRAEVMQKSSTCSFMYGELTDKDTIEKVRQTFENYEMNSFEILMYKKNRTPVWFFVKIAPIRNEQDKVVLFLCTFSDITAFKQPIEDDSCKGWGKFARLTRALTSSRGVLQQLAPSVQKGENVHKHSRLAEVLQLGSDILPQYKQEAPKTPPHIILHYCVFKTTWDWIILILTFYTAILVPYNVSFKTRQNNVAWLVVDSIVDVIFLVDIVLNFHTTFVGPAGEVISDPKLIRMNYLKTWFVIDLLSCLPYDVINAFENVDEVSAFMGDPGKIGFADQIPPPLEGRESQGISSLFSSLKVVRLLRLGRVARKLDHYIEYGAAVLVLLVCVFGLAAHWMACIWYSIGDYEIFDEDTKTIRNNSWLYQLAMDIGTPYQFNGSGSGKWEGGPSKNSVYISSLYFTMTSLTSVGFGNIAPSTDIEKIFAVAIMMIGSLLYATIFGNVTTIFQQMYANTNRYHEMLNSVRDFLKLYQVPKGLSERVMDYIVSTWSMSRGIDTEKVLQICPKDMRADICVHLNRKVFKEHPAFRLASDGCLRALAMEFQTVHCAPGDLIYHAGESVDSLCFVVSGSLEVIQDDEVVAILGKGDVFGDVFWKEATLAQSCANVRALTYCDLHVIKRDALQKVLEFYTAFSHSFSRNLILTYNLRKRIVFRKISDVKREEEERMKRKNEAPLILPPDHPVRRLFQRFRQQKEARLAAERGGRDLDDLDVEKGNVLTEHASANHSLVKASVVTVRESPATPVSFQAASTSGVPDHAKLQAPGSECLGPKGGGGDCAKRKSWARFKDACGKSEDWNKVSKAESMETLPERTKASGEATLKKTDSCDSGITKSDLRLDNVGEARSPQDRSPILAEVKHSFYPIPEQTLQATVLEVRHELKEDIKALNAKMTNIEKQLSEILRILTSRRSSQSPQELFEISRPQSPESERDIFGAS
Sequence of KV4.2 (Q9NZV8 whole entry): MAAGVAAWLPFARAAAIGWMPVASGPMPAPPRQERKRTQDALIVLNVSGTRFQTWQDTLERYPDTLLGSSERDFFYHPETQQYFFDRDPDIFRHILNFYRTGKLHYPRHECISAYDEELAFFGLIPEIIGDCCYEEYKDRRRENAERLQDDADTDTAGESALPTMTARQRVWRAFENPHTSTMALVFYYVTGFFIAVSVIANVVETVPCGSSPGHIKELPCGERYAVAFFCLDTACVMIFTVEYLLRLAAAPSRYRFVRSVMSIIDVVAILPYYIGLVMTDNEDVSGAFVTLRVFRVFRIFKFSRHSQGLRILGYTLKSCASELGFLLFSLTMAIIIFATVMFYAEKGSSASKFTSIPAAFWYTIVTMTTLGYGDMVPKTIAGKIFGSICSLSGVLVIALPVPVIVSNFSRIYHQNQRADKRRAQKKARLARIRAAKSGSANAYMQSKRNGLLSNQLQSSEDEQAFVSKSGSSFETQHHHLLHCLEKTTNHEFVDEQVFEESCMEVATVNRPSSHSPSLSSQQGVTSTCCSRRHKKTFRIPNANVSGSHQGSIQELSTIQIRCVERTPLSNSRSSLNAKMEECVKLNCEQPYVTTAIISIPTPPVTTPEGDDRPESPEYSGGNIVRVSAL

COc1ccccc1C(=O)NCC1(c2ccsc2)CCOCC1 [Compound 44]
Effect on KV10.1 channel [1]: no significant effects | Effect on KV2.1 channel [2, 5]: no significant effects | IC50 [3, 6]: 8.48 ± 2.21 µM | inhibition of KV1.4 [3, 5]: ~16%

COc1ccccc1C(=O)NCC1(c2cccs2)CCOC1 (stereo not drawn) [Compound 14]
IC50 [2, 6]: 6.45 ± 0.42 µM | IC50 [4]: 2.41 ± 0.88 µM

— paper PMC9179341, “Design of New Potent and Selective Thiophene-Based KV1.3 Inhibitors and Their Potential for Anticancer Activity” (Cancers, 2022)
